Here are results for five compounds from patent US9040660B2, “Long-acting gastrin derivatives” (priority 2010, dated 2015).

Read-outs that look alike come from different tables or passages of the source. Numbered stars: 1 amine (or outer) side, 2 acyl side, 3 side chain; on linkers, the order of the positions; unused ones are H or OH. Peptide text beside a SMILES is read from it. * marks the point of attachment. C18 diacid = O=C(O)CCCCCCCCCCCCCCCCC(=O)*; γGlu = O=C(O)[C@H](CCC(=O)[*:2])N[*:1]; AEEA = NCCOCCOCC(=O)O

Details of series [1]: species or system Göttingen mini-pigs. To be noted: minipig, in vivo, iv, 10 nmol/kg. On the procedure:
Assay (II): Minipig i.v. PK
Six male Göttingen mini-pigs weighing approximately 20 to 23 kg from Ellegaard Gottingen Minipigs A/S, Denmark were comprised in the study. The mini-pigs were dosed intra venous (i.v.) via a central catheter in vena cava caudalis. The catheter was flushed with 10 ml saline post administration. Blood was sampled from the central catheter. Test substances were dissolved in a vehicle consisting of in 50 mM sodium phosphate, […] sodium chloride, 0.05% tween80 pH 7.4. The pigs were dosed with 10 nmol of gastrin compound (such as gastrin derivative)/kg body weight or 10 nmol Gastrin-17/kg body weight. Blood samples were taken at the following time points: pre-dose, 5 minutes, 15 minutes, 30 minutes, 45 minutes, 1, 1.5, 2, 3, 4, 6, 8, 10, 24, 48, 72, 96, 120, 168, 192 and 216 hours post dosing. The blood samples were collected into test tubes containing EDTA buffer for stabilization and kept on ice for max. 20 minutes before centrifugation. The centrifugation procedure to separate plasma may be: 4° C., approx. 2500 g for 10 minutes. Plasma was collected and immediately transferred to Micronic tubes stored at −20° C. until assayed.
Blood samples were analysed for gastrin compound content using a competitive scintillation proximity assay (SPA). The assay is a radiometric-ligand binding assay using […]™ imaging particles. The assay involves a rabbit anti-human gastrin-17(2-17) polyclonal antibody, wherein the human gastrin-17(2-17) against which said antibody raised contained position 2-17 of SEQ ID NO:2 (said antibody is obtainable from professor Jens Rehfeld, Rigshospitalet, Copenhagen, Denmark), [^125I]-Tyr^12 gastrin I (human) (which has the sequence pG1u-[…][^125I]Tyr-Gly-Trp-Met-Asp-Phe-NH2, item no. NEX176010UC, […]® Waltham, Massachusetts, USA) and PS […]™ particles coated with anti-rabbit Ig antibodies. Gastrin compounds (in calibrators, controls or unknown samples) and [^125I]-Tyr12 human gastrin I will compete for the binding to the polyclonal rabbit anti human gastrin I antibody. The anti-rabbit Ig antibodies on the […]™ particles recognize the anti-gastrin antibodies bringing the [^125I-] gastrin molecules in close proximity to the […]™ particles resulting in light emission from the particles. The […]™ will image the emitted light that is reversely correlated to the amount of gastrin compound present in the sample. 5μL sample, calibrator or control was applied to white 384-well polystyrene plates followed by 10μantibody working solution (rabbit-anti-Gastrin serum from rabbit 2609 batch 11/10-73), 10μl tracer working solution and 10μl bead working solution. […] After exchanging the seal against a new one, the light emission was detected with a […]™ Multimodality Imaging System. […]
The concentration-response relationship was calculated using a four-parameter logistic model using non linear regression analysis and the output of the assay was the concentration of the respective gastrin analogue in pM. The in vivo plasma half life was determined by non-compartmental analysis (NCA) of plasma concentration-time profiles from each animal. NCA may be carried out as follows: Plasma concentration-time profiles were analyzed by non-compartmental pharmacokinetics analysis (NCA) using WinNonlin (Pharsight Inc., Mountain View, Calif., USA); NCA was performed using the individual plasma concentration-time profiles from each animal.
Half life of gastrin compounds was determined according to Assay (II).

The target of series [2] is T1, CCK2 receptor (gastrin receptor) (Homo sapiens, UniProt P32239).
T1 construct: expressed in transfected cells; host or cells: NIH 3T3/CCK2R cells (mouse fibroblast line overexpressing CCK2R, kept under G418 selection)
T1 sequence (P32239 1-447): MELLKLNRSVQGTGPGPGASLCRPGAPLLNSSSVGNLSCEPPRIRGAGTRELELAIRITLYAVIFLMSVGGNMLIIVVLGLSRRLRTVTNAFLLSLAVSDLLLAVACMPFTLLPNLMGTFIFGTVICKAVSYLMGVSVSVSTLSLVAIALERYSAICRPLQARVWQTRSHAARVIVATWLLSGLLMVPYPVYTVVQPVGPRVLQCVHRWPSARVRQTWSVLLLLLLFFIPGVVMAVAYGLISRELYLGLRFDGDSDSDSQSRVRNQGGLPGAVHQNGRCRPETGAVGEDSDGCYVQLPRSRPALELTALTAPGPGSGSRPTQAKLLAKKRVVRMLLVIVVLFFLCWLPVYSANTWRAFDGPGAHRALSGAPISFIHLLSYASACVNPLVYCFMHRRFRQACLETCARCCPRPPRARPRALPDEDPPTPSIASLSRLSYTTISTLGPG
It counts as cell-based. To be noted: [Leu15] Gastrin-17 = 100, NIH 3T3/CCK2R cells, calcium mobilization. On the procedure: Assay (I): In Vitro Receptor Potency In vitro receptor potency was measured using a CCK2 receptor mediated calcium mobilization assay. The CCK2 receptor (gastrin receptor) signals via the heterotrimeric G-protein, Gq, to activate phospholipase C(PLC). This leads to generation of inositol-1,4,5-trisphosphate (IP3) that releases calcium from intracellular stores. The primary rise in cytosolic calcium concentration is followed by activation of calcium dependent calcium channels in the plasma membrane allowing extracellular calcium to enter the cell. The rise in calcium concentration is transient, but it can be measured in situ by loading the cells with a calcium dependent fluorescent probe and monitored by the use of 96- or 384-well fluorescence plate readers. In the current assay, NIH 3T3/CCK2R cells were seeded in black PolyLysin coated 384 well plates with clear bottom at 14000 cells per well and incubated overnight in 25 μl (per well) Gibco Nut. mix F-12 Glutamax medium with 10% FCS, 1% penicillin and streptomycin and 1 mg/ml […]418). The next day […] dye solution (Ca 5 probe from Molecular Devices, dissolved in HBSS/Hepes buffer pH 7.4 containing 0.1% Ovalbumin, 0.005% Tween 20, 3.5 μM Probenecid, 50 μM PDE inhibitor and 0.2% CaCl2) was added per well and the plate was incubated for 1 hour at room temperature. After incubation, these plates were loaded onto FLIPR Tetra from Molecular Devices together with the sample plates containing dilution series of gastrin analogues in HBSS/Hepes buffer with 30% DMSO. During the assay run, 1 μl sample was transferred from the sample plate to the assay plate. Beside the baseline fluorescence measurement, a second fluorescence measurement was performed after 30 seconds with both measurements using the […] 540 nm/590 nm. For each agonist concentration E=Emax. Emin was calculated. The concentration-response relationship was calculated using a four-parameter logistic model using non linear regression analysis (Prism 5.02, GraphPad Software). In vitro receptor potency of gastrin compounds was measured using Assay (I).
(A change in cytosolic calcium serves as a functional read-out for many receptors and channels.)

The conditions of series [3]: dog, in vivo; cited from earlier work.
Where [4] appears, read: Table 2: N-terminal acylation/truncation series.

The term half-life denotes how long it takes for the measured level to halve.

For `CSCC[C@H](NC(=O)[C@H](Cc1c[nH]c2ccccc12)NC(=O)CNC(=O)[C@H](Cc1ccc(O)cc1)NC(=O)[C@H](C)NC(=O)[C@H](CCC(=O)O)NC(=O)[C@H](CCC(=O)O)NC(=O)[C@H](CCC(=O)O)NC(=O)[C@H](CCC(=O)O)NC(=O)[C@H](CCC(=O)O)NC(=O)[C@H](CC(C)C)NC(=O)[C@H](Cc1c[nH]c2ccccc12)NC(=O)[C@@H]1CCCN1C(=O)CNC(=O)[C@H](CCC(N)=O)NC(=O)COCCOCCNC(=O)COCCOCCNC(=O)CC[C@H](NC(=O)CCCCCCCCCCCCCCCCC(=O)O)C(=O)O)C(=O)N[C@@H](CC(=O)O)C(=O)N[C@@H](Cc1ccccc1)C(N)=O` [N-alpha-#-gastrin-17, N-alpha-{2-(2-{2-[2-(2-{2-[4-Carboxy-4-(17-carboxyheptadecanoylamino)butyrylamino]ethoxy}-ethoxy)acetylamino]-ethoxy}ethoxy)acetyl}[Gln1] gastrin-17 (A)], the half-life in series [1] was 64 ± 6 h.

`CC(C)C[C@H](NC(=O)[C@H](Cc1c[nH]c2ccccc12)NC(=O)CNC(=O)[C@H](Cc1ccc(O)cc1)NC(=O)[C@H](C)NC(=O)[C@H](CCC(=O)O)NC(=O)[C@H](CCC(=O)O)NC(=O)[C@H](CCC(=O)O)NC(=O)[C@H](CCC(=O)O)NC(=O)[C@H](CCC(=O)O)NC(=O)[C@H](CC(C)C)NC(=O)[C@H](Cc1c[nH]c2ccccc12)NC(=O)COCCOCCNC(=O)COCCOCCNC(=O)CC[C@H](NC(=O)CCCCCCCCCCCCCCCCC(=O)O)C(=O)O)C(=O)N[C@@H](CC(=O)O)C(=O)N[C@@H](Cc1ccccc1)C(N)=O` [N-α-#-[Leu15] Gastrin-17 (4-17), N-alpha-{2-(2-{2-[2-(2-{2-[4-Carboxy-4-(17-carboxyheptadecanoylamino)butyrylamino]ethoxy}-ethoxy)acetylamino]-ethoxy}ethoxy)acetyl}[Leu15] gastrin-17 (4-17)] ({C18 diacid-γGlu-AEEA-AEEA}-WLEEEEEAYGWLDF-NH2): in series [2] (setting [4]), the “Relative Receptor Potency” value is 58. This compound had a half-life in series [1] of 95 h.

On to `CC(C)C[C@H](NC(=O)[C@H](Cc1c[nH]c2ccccc12)NC(=O)CNC(=O)[C@H](Cc1ccc(O)cc1)NC(=O)[C@H](C)NC(=O)[C@H](CCC(=O)O)NC(=O)[C@H](CCC(=O)O)NC(=O)[C@H](CCC(=O)O)NC(=O)[C@H](CCC(=O)O)NC(=O)COCCOCCNC(=O)COCCOCCNC(=O)CC[C@H](NC(=O)CCCCCCCCCCCCCCCCC(=O)O)C(=O)O)C(=O)N[C@@H](CC(=O)O)C(=O)N[C@@H](Cc1ccccc1)C(N)=O` [N-α-#-[Leu15] Gastrin-17 (7-17), N-alpha-{2-(2-{2-[2-(2-{2-[4-Carboxy-4-(17-carboxyheptadecanoylamino)butyrylamino]ethoxy}-ethoxy)acetylamino]-ethoxy}ethoxy)acetyl}[Leu15] gastrin-17 (7-17)] ({C18 diacid-γGlu-AEEA-AEEA}-EEEEAYGWLDF-NH2), for which the “Relative Receptor Potency” value in series [2] (setting [4]) was found to be 39. Moreover, the half-life in series [1] was around 95 h.

In the case of `CC(C)C[C@H](NC(=O)[C@H](Cc1c[nH]c2ccccc12)NC(=O)CNC(=O)[C@H](Cc1ccc(O)cc1)NC(=O)[C@H](C)NC(=O)[C@H](CCC(=O)O)NC(=O)[C@H](CCC(=O)O)NC(=O)[C@H](CCC(=O)O)NC(=O)[C@H](CCC(=O)O)NC(=O)[C@H](CCC(=O)O)NC(=O)[C@H](CC(C)C)NC(=O)[C@H](Cc1c[nH]c2ccccc12)NC(=O)[C@@H]1CCCN1C(=O)CNC(=O)[C@H](CCC(N)=O)NC(=O)COCCOCCNC(=O)COCCOCCNC(=O)CC[C@H](NC(=O)CCCCCCCCCCCCCCCCC(=O)O)C(=O)O)C(=O)N[C@@H](CC(=O)O)C(=O)N[C@@H](Cc1ccccc1)C(N)=O` [N-α-#-[Leu15] Gastrin-17, N-alpha-{2-(2-{2-[2-(2-{2-[4-Carboxy-4-(17-carboxyheptadecanoylamino)butyrylamino]ethoxy}-ethoxy)acetylamino]-ethoxy}ethoxy)acetyl}[Gln1,Leu15] gastrin-17] ({C18 diacid-γGlu-AEEA-AEEA}-QGPWLEEEEEAYGWLDF-NH2), the “Relative Receptor Potency” value came to 76 in series [2] (setting [4]) and 57 in series [2] (Table 3: acylation position (Lys scan) series). In series [1], the half-life is 109 ± 26 h.

For `CSCC[C@H](NC(=O)[C@H](Cc1c[nH]c2ccccc12)NC(=O)CNC(=O)[C@H](Cc1ccc(O)cc1)NC(=O)[C@H](C)NC(=O)[C@H](CCC(=O)O)NC(=O)[C@H](CCC(=O)O)NC(=O)[C@H](CCC(=O)O)NC(=O)[C@H](CCC(=O)O)NC(=O)[C@H](CCC(=O)O)NC(=O)[C@H](CC(C)C)NC(=O)[C@H](Cc1c[nH]c2ccccc12)NC(=O)[C@@H]1CCCN1C(=O)CNC(=O)[C@@H](N)CCC(N)=O)C(=O)N[C@@H](CC(=O)O)C(=O)N[C@@H](Cc1ccccc1)C(N)=O` [gastrin-17, reference compound], the half-life in series [1] was 0.058 ± 0.007 h. Also, in series [3], the half life is 2 to 8 min.
